Results: ChEMBL document CHEMBL4402585 (J Med Chem, 2020)

Columns and labels:
[1] = AUC (0 to t) in Sprague-Dawley rat at 1 mg/kg, iv by LC-MS/MS analysis; format: ADME, organism-based; settings: in vivo
[2] = Half life in mouse at 3 mg/kg, iv by LC-MS/MS analysis; format: ADME, organism-based; settings: in vivo
[3] = target: Bromodomain-containing protein 3 (Homo sapiens, UniProt Q15059); experiment: Binding affinity to human partial length BRD3 BD2 (G306 to P416 residues) expressed in bacterial expression system by bromoscan assay
[4] = Half life in Sprague-Dawley rat at 3 mg/kg, po by LC-MS/MS analysis; format: ADME, organism-based; settings: in vivo
RS4-11 = experiment: Antiproliferative activity against human RS4:11 cells assessed as reduction in cell viability measured after 72 hrs by Celltitre-glo luminescence assay; format: functional, cell-based; settings: RS4-11, 72 h
[5] = target: T1, Bromodomain-containing protein 4 (Homo sapiens, UniProt O60885); experiment: Inhibition of BRD4 in human MV4-11 cells assessed as reduction in c-Myc expression measured after 6 to 24 hrs by Western blot analysis; format: cell-based
Cytochrome P450 3A4 [6] = target: T2, Cytochrome P450 3A4 (Homo sapiens, UniProt P08684); experiment: Inhibition of CYP3A4 in human liver microsomes using testosterone as substrate preincubated for 10 mins followed by NADPH addition and measured after 15 mins by LC-MS/MS analysis; format: ADME
T2 sequence (P08684 whole entry, the tested form may be a part, canonical isoform): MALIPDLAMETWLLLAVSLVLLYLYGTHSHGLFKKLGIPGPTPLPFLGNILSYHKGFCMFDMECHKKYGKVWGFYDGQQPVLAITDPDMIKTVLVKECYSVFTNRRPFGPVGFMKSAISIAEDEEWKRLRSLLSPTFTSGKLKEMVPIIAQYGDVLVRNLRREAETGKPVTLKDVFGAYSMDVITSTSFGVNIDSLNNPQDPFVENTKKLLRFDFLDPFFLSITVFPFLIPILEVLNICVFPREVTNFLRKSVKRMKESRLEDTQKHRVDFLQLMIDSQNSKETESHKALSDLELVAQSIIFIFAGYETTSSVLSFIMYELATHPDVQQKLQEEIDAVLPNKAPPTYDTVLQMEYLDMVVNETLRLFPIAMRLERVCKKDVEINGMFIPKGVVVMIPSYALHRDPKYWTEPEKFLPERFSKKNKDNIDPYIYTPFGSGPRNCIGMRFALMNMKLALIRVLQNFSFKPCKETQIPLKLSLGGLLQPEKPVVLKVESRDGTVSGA

[7] = target: Bromodomain testis-specific protein (Homo sapiens, UniProt Q58F21); experiment: Binding affinity to human partial length BRDT bromodomain 2 isoform b (K250 to E382 residues) expressed in bacterial expression system by bromoscan assay
[8] = target: Bromodomain-containing protein 2 (Homo sapiens, UniProt P25440); experiment: Binding affinity to human partial length BRD2 BD2 isoform 1 (E348 to D455 residues) expressed in bacterial expression system by bromoscan assay
MV4-11 [9] = experiment: Antiproliferative activity against human MV4-11 cells assessed as reduction in cell viability measured after 72 hrs by Celltitre-glo luminescence assay; format: functional, cell-based; settings: MV4-11, 72 h
[10] = target: Histone acetyltransferase p300 (Homo sapiens, UniProt Q09472); experiment: Inhibition of MSGRGK(Ac)-GGK(Ac)GLGK(Ac)GGAKRHR-biotin binding to EP300 (1040 to 1160 residues) (unknown origin) expressed in Escherichia coli BL21 (DE3) by Alphascreen assay
Sequence of Histone acetyltransferase p300 (Q09472 whole entry, the tested form may be a part): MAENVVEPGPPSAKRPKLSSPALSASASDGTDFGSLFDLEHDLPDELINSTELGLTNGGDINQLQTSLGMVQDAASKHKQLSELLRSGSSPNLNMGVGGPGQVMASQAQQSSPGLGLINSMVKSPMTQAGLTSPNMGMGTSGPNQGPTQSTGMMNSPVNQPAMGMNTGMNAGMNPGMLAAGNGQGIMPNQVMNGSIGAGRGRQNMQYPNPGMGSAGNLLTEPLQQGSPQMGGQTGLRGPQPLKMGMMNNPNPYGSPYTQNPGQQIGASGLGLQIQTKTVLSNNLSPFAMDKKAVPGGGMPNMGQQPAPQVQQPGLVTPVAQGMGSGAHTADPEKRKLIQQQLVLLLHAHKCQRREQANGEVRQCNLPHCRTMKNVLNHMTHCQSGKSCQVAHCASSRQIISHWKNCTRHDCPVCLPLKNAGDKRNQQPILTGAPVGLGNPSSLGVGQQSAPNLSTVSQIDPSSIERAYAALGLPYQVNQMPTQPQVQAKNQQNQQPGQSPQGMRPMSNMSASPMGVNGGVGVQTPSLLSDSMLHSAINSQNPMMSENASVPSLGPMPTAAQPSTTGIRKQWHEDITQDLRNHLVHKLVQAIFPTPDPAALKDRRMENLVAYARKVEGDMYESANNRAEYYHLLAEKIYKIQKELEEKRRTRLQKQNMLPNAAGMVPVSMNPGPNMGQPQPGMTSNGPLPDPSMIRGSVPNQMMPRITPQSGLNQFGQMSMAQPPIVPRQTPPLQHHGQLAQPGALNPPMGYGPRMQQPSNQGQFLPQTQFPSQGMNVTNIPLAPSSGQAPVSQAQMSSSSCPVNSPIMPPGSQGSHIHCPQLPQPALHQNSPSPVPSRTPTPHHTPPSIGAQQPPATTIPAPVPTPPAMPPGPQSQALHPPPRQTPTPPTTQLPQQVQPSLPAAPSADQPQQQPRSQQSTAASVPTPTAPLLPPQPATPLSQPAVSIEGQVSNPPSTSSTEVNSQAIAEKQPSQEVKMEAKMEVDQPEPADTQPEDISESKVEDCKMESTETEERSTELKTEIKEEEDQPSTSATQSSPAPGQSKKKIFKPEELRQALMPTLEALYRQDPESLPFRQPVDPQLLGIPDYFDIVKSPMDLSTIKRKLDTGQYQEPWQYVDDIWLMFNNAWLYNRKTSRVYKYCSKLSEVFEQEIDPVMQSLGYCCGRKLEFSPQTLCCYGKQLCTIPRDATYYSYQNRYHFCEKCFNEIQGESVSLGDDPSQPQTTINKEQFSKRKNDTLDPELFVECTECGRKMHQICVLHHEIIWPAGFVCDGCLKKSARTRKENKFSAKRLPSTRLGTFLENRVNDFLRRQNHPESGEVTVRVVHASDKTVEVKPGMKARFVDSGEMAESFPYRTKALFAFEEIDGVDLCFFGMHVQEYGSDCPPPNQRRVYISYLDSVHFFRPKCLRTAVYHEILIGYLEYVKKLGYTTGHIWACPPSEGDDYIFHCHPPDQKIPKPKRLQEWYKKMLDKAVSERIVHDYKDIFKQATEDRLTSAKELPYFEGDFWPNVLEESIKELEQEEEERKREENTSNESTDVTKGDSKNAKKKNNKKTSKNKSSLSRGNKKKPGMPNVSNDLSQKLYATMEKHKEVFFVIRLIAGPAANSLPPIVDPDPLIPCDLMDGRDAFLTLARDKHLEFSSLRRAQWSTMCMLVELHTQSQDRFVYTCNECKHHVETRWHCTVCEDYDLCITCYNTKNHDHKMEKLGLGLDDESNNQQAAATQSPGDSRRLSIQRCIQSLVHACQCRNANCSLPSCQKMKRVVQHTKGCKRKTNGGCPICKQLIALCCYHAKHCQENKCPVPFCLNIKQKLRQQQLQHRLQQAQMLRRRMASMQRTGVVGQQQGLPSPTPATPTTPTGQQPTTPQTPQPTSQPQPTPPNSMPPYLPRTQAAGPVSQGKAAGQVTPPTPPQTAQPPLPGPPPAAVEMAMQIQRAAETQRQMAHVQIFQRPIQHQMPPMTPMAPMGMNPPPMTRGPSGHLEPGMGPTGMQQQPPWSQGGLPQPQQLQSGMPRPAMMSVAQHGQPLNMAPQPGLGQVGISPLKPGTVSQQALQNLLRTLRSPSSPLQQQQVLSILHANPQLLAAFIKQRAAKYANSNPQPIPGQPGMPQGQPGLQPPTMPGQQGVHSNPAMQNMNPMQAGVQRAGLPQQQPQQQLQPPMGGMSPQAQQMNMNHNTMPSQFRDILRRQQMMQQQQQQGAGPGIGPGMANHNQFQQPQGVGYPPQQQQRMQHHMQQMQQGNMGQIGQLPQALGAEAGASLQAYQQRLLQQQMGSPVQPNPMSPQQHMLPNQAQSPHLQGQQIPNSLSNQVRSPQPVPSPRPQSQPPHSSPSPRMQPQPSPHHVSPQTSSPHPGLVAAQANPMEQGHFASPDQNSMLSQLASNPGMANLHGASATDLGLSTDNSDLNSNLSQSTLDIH

[11] = Clearance in Sprague-Dawley rat at 1 mg/kg, iv by LC-MS/MS analysis; format: ADME, organism-based; settings: in vivo
Cytochrome P450 2C9 = Cytochrome P450 2C9 (Homo sapiens, UniProt P11712); experiment: Inhibition of CYP2C9 in human liver microsomes using tolbutamide as substrate preincubated for 10 mins followed by NADPH addition and measured after 15 mins by LC-MS/MS analysis; format: ADME
Sequence of Cytochrome P450 2C9 (P11712 whole entry): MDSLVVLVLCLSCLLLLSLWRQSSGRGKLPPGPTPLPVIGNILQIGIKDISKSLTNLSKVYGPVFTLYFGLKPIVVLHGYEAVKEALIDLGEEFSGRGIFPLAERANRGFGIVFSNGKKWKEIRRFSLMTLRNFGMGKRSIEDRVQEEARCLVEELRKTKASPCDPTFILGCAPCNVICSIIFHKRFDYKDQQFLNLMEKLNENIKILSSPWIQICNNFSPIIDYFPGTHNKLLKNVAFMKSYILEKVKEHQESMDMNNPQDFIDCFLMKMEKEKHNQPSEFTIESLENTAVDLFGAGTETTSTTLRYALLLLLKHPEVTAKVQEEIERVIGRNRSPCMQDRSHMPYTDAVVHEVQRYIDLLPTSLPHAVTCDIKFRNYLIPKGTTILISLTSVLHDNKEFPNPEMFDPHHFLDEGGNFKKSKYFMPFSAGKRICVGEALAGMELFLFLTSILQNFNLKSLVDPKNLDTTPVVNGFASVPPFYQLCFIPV

[12] = Clearance in dog liver microsomes at 0.1 uM preincubated for 10 mins followed by NADPH addition and measured up to 60 mins by LC-MS/MS analysis; format: ADME, Canis lupus familiaris, Microsome; settings: 1 h
Cytochrome P450 1A2 = target: T3, Cytochrome P450 1A2 (Homo sapiens, UniProt P05177); experiment: Inhibition of CYP1A2 in human liver microsomes using phenacetin as substrate preincubated for 10 mins followed by NADPH addition and measured after 15 mins by LC-MS/MS analysis; format: ADME
T3 sequence (P05177 whole entry): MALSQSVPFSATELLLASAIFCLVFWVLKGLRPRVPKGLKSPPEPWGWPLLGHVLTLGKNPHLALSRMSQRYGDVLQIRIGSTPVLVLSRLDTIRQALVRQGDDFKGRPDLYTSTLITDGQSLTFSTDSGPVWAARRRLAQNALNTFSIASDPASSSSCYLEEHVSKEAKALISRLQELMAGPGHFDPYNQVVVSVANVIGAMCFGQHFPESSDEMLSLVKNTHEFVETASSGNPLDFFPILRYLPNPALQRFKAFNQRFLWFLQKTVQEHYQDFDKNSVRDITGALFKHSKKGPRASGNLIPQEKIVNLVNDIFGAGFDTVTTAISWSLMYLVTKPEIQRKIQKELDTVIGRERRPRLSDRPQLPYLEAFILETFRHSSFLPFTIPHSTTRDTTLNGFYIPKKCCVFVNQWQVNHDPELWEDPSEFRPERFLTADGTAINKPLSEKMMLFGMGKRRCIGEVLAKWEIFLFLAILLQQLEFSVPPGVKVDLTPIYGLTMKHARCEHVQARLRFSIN

[13] = Clearance in mouse at 3 mg/kg, iv by LC-MS/MS analysis; format: ADME, organism-based; settings: in vivo
[14] = Half life in dog liver microsomes at 0.1 uM preincubated for 10 mins followed by NADPH addition and measured up to 60 mins by LC-MS/MS analysis; format: ADME, Canis lupus familiaris, Microsome
[15] = Volume of distribution at steady state in Sprague-Dawley rat at 1 mg/kg, iv by LC-MS/MS analysis; format: ADME, organism-based; settings: in vivo, read-out: Vdss
[16] = Cmax in Sprague-Dawley rat at 3 mg/kg, po by LC-MS/MS analysis; format: ADME, organism-based; design: dose 3 mg/kg, route oral; settings: in vivo
Cytochrome P450 2C19 = Cytochrome P450 2C19 (Homo sapiens, UniProt P33261); experiment: Inhibition of CYP2C19 in human liver microsomes using S-mephenytoin as substrate preincubated for 10 mins followed by NADPH addition and measured after 15 mins by LC-MS/MS analysis; format: ADME
Sequence of Cytochrome P450 2C19 (P33261 whole entry): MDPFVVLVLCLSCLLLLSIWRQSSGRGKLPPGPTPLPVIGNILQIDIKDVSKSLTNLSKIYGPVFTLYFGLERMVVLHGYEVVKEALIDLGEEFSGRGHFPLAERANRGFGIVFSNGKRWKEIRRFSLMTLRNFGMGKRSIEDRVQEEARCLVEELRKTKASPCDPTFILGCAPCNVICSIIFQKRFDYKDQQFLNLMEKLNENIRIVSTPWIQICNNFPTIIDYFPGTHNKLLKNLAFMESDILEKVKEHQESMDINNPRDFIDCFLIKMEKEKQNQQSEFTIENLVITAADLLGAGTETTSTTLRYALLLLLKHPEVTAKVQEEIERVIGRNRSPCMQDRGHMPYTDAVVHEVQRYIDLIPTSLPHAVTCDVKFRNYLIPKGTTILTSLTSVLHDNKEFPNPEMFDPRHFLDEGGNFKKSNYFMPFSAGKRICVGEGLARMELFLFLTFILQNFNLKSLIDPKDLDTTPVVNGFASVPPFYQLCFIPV

[17] = Clearance in human liver microsomes at 0.1 uM preincubated for 10 mins followed by NADPH addition and measured up to 60 mins by LC-MS/MS analysis; format: ADME, Microsome; settings: 1 h
Cytochrome P450 3A4 [18] = target: T2, Cytochrome P450 3A4; experiment: Inhibition of CYP3A4 in human liver microsomes using midazolam as substrate preincubated for 10 mins followed by NADPH addition and measured after 15 mins by LC-MS/MS analysis; format: ADME
MV4-11 [19] = experiment: Antitumor activity against human MV4-11 cells xenografted in mouse assessed as tumor growth inhibition at 12.5 mg/kg, po administered for 28 days and measured every 2 to 3 days during compound dosing relative to control; format: functional; settings: MV4-11, po, read-out: TGI
Kasumi 1 = experiment: Antiproliferative activity against human Kasumi-1 cells assessed as reduction in cell viability measured after 72 hrs by Celltitre-glo luminescence assay; format: functional, cell-based; settings: Kasumi 1, 72 h
[20] = Half life in Sprague-Dawley rat at 1 mg/kg, iv by LC-MS/MS analysis; format: ADME, organism-based; settings: in vivo
[21] = Oral bioavailability in mouse at 3 mg/kg by LC-MS/MS analysis; format: ADME, organism-based; settings: in vivo
[22] = target: T1, Bromodomain-containing protein 4
Description: Binding affinity to N-terminal His6-tagged BRD4 bromodomain 1 (49 to 170 residues) (unknown origin) expressed in Escherichia coli BL21 (DE3) assessed as change in melting temperature at 1:100 molar ratio by SYPRO orange dye based fluorescence thermal shift assay

[23] = target: Voltage-gated inwardly rectifying potassium channel KCNH2 (Homo sapiens, UniProt Q12809); experiment: Inhibition of human ERG at 40 uM by Qpatch automatic patch clamp method
Sequence of Voltage-gated inwardly rectifying potassium channel KCNH2 (Q12809 whole entry): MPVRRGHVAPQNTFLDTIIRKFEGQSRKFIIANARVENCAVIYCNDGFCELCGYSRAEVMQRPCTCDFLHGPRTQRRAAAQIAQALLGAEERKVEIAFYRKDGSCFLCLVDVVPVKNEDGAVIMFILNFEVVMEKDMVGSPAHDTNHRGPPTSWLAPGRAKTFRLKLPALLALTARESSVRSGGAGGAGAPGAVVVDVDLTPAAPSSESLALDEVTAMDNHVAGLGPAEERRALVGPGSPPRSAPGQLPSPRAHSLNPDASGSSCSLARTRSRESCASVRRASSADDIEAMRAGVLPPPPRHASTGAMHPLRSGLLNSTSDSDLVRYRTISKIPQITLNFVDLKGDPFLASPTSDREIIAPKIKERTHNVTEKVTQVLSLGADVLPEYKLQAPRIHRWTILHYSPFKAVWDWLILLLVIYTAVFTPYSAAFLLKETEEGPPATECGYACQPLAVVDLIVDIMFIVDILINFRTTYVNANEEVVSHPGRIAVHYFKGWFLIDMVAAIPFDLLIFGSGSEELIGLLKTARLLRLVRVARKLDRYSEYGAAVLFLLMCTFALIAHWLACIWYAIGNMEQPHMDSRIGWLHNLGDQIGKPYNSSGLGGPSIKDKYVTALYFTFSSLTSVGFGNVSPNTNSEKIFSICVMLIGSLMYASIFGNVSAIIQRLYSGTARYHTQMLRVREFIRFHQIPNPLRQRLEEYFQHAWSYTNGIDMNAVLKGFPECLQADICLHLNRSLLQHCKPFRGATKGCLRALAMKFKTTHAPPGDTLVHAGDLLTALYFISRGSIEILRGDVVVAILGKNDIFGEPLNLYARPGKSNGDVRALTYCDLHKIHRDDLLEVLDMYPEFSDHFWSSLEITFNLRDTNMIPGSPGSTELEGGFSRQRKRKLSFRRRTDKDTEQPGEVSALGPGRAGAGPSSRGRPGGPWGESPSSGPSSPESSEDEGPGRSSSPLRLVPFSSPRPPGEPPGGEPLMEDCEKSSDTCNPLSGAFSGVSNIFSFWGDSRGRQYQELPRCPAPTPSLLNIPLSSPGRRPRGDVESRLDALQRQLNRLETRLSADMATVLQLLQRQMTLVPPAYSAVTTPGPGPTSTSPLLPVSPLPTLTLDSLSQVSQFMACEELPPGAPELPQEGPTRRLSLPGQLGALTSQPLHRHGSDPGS

[24] = AUC (0 to t) in mouse at 3 mg/kg, po by LC-MS/MS analysis; format: ADME, organism-based; settings: in vivo
[25] = Toxicity in human MV4-11 cells xenografted mouse assessed as change in body weight at 6.25 to 12.5 mg/kg, po administered for 28 days and measured every 2 to 3 days during compound dosing; format: organism-based; settings: in vivo
[26] = target: T1, Bromodomain-containing protein 4; experiment: Inhibition of BRD4 in human MV4-11 cells assessed as up regulation of p21 expression measured after 6 to 24 hrs by Western blot analysis; format: cell-based

- AUC(0-t) [1]: 848 ng·h/mL
- half-life [2]: 54 min
- Kd [3]: 1 nM
- half-life [4]: 216 min
- IC50 (RS4-11): 22.1 nM
- inhibition [5]: Dose-dependent effect
- IC50 (Cytochrome P450 3A4 [6]): > 20 µM
- Kd [7]: 2.1 nM
- Kd [8]: 1.3 nM
- IC50 (MV4-11 [9]): 2.4 nM
- IC50 [10]: 3.86 µM
- clearance [11]: 21.5 mL/min/kg
- IC50 (Cytochrome P450 2C9): > 20 µM
- CLH [12]: 25.2 mL/min/g
- IC50 (Cytochrome P450 1A2): > 20 µM
- clearance [13]: 15.3 mL/min/kg
- half-life at 0.1 µM [14]: 83.4 min
- Vd [15]: 1.46 L/kg
- Cmax [16]: 159 ng/mL
- IC50 (Cytochrome P450 2C19): > 20 µM
- Microsomal intrinsic clearance [17]: 12.2 mL/min/g
- IC50 (Cytochrome P450 3A4 [18]): > 20 µM
- half-life [20]: 78 min
- bioavailability [21]: 52.3%
- ΔTm [22]: > 1 °C
- AUC(0-t) [24]: 1710 ng·h/mL
- inhibition [26]: Dose-dependent effect
Structure (SMILES): CCS(=O)(=O)Cc1cnc(Oc2ccc(F)cc2F)c(-c2cc(C)c3c(=O)[nH]ccn23)c1
- inhibition in vivo at 12.5 mg/kg (MV4-11 [19]): 99.7%
- IC50 (Kasumi 1): 7.4 nM
- inhibition (INH) [23]: Not Active
- Activity [25]: Non-Toxic
